In patent US20230041563A1, “N-(1,3,4-OXADIAZOL-2-YL)ARYLCARBOXAMIDES OR SALTS THEREOF, PREPARATION METHODS, HERBICIDAL COMPOSITIONS AND USES THEREOF” (priority 2018, published 2023):

Tests used:
Assay in all cases: Weeding effect in post-emergence stage (greenhouse pot spray)
Format in all cases: in vivo
Digitaria sanguinalis = system: Digitaria sanguinalis
Excerpt: (§1) The activity level criteria for plant damage (i.e., growth control rate) are as follows:
(§2) The above growth control rates are fresh weight control rates.
(§3) Experiment on weeding effect in post-emergence stage: monocotyledonous and dicotyledonous weed seeds (Descurainia sophia, Capsella bursa-pastoris, Abutilon theophrasti, Galium aparine, Stellaria media, Lithospermum arvense, rorippa indica, Alopecurus aequalis, Beckmannia syzigachne, Sclerochloa dura, Phleum paniculatum, Bromus japonicus, Aegilops tauschii, Phalaris arundinacea, Amaranthus retroflexus, Chenopodiaceae, Commelina communis, Sonchus arvensis, convolvulus arvensis, Cirsium setosum, Solanum nigrum, Acalypha australis, Digitaria sanguinalis, Echinochloa crusgalli, Setaria viridis, Setaria glauca, Leptochloa chinensis, Monochoria vaginalis, Sagittaria trifolia, Scirpus juncoides, Cyperus rotundus, Cyperus iria, Cyperus difformis, Fimbristylis, Portulaca oleracea, Xanthium sibiricum, Pharbitis nil) and major crop seeds (wheat, corn, rice, soybean, cotton, oilseed rape, millet, sorghum, potato, sesame, ricinus) were placed in plastic pots filled with soil, then covered with 0.5-2 cm of soil, allowed to grow in a good greenhouse environment. After 2 weeks of sowing, the test plants were treated in the 2 to 3 leaf stage. The tested compounds of the present invention were respectively dissolved in acetone, then added with Tween 80 and 1.5 liter/ha of emulsifiable concentrate of methyl oleate as synergist, diluted with a certain amount of water to obtain a solution with a certain concentration, and sprayed with a spray tower onto the plants. After the application, the plants were cultured for 3 weeks in the greenhouse, and then the experimental results of the weeding were counted. […]

Abutilon theophrasti = system: Abutilon theophrasti
Excerpt: as §1, §2, §3

Setaria viridis = system: Setaria viridis
Excerpt: as §1, §2, §3

Amaranthus retroflexus = system: Amaranthus retroflexus
Excerpt: as §1, §2
(§4) Experiment on weeding effect in post-emergence stage: monocotyledonous and dicotyledonous weed seeds (Descurainia sophia, Capsella bursa-pastoris, Abutilon theophrasti, Galium aparine, Stellaria media, Lithospermum arvense, rorippa indica, Alopecurus aequalis, Beckmannia syzigachne, Sclerochloa dura, Phleum paniculatum, Bromus japonicus, Aegilops tauschii, Phalaris arundinacea, Amaranthus retroflexus, Chenopodiaceae, Commelina communis, Sonchus arvensis, convolvulus arvensis, Cirsium setosum, Solanum nigrum, Acalypha australis, Digitaria sanguinalis, Echinochloa crusgalli, Setaria viridis, Setaria glauca, Leptochloa chinensis, Monochoria vaginalis, Sagittaria trifolia, Scirpus juncoides, Cyperus rotundus, Cyperus iria, Cyperus difformis, Fimbristylis, Portulaca oleracea, Xanthium sibiricum, Pharbitis nil) and major crop seeds (wheat, corn, rice, soybean, cotton, oilseed rape, millet, sorghum, potato, sesame, ricinus) were placed in plastic pots filled with soil, then covered with 0.5-2 cm of soil, allowed to grow in a good greenhouse environment. After 2 weeks of sowing, the test plants were treated in the 2 to 3 leaf stage. The tested compounds of the present invention were respectively dissolved in acetone, then added with Tween 80 and 1.5 liter/ha of emulsifiable concentrate of methyl oleate as synergist, diluted with a certain amount of water to obtain a solution with a certain concentration, and sprayed with a spray tower onto the plants. After the application, the plants were cultured for 3 weeks in the greenhouse, and then the experimental results of the weeding were counted. The doses of the used compounds were 500, 250, 125, 60, 15 g a.i./ha, and the averages were obtained by repeating for three times.

Stellaria media = system: Stellaria media
Excerpt: as §1, §2, §4

Echinochloa crusgalli = system: Echinochloa crusgalli
Excerpt: as §1, §2, §3

| SMILES | Amaranthus retroflexus (activity level) (Amaranthus retroflexus; Table 2, dose 500 g a.i./ha) | Digitaria sanguinalis (activity level) (Digitaria sanguinalis; Table 2, dose 500 g a.i./ha) | Echinochloa crusgah (activity level) (Echinochloa crusgalli; Table 2, dose 500 g a.i./ha) | Amaranthus retroflexus (activity level) (Amaranthus retroflexus; Table 2, dose 250 g a.i./ha) | Abutilion theophrasti (activity level) (Abutilon theophrasti; Table 2, dose 250 g a.i./ha) | Echinochloa crusgah (activity level) (Echinochloa crusgalli; Table 2, dose 250 g a.i./ha) | other results |
| --- | --- | --- | --- | --- | --- | --- | --- |
| CCC(C)[S+]([O-])c1c(C(F)(F)F)ccc(C(=O)Nc2nnc(C)o2)c1F (mixture of isomers) [Compound 1-17] | – | – | – | – | – | – | Digitaria sanguinahs (activity level) (Digitaria sanguinalis; Table 3, dose 60 g a.i./ha): 5 (Level 5: growth control rate is above 85%); Abutilon theophrasti (activity level) (Abutilon theophrasti; Table 3, dose 60 g a.i./ha): 5 (Level 5: growth control rate is above 85%); Setaria viridis (activity level) (Setaria viridis; Table 3, dose 60 g a.i./ha): 5 (Level 5: growth control rate is above 85%) |
| CCC(C)C[S+]([O-])c1c(C(F)(F)F)ccc(C(=O)Nc2nnc(C)o2)c1F (mixture of isomers) [Compound 1-29] | 5 (Level 5: growth control rate is above 85%) | 5 (Level 5: growth control rate is above 85%) | 5 (Level 5: growth control rate is above 85%) | – | – | – | Stellaria media (activity level) (Stellaria media; Table 2, dose 500 g a.i./ha): 5 (Level 5: growth control rate is above 85%); Abutilion theophrasti (activity level) (Abutilon theophrasti; Table 2, dose 500 g a.i./ha): 5 (Level 5: growth control rate is above 85%) |
| COCC[S@+]([O-])c1c(C(F)(F)F)ccc(C(=O)Nc2nnco2)c1F [3-57 (R-configuration)] | – | – | – | – | – | – | Digitaria sanguinahs (activity level) (Digitaria sanguinalis; Table 3, dose 125 g a.i./ha): 5 (Level 5: growth control rate is above 85%); Echinochloa crusgali (activity level) (Echinochloa crusgalli; Table 3, dose 125 g a.i./ha): 5 (Level 5: growth control rate is above 85%); Setaria viridis (activity level) (Setaria viridis; Table 3, dose 125 g a.i./ha): 5 (Level 5: growth control rate is above 85%) |
| CCC[S@@+]([O-])c1c(C(F)(F)F)ccc(C(=O)Nc2nnc(C(C)C)o2)c1F [6-8 (R-configuration)] | – | – | – | – | – | – | Digitaria sanguinahs (activity level) (Digitaria sanguinalis; Table 3, dose 250 g a.i./ha): 5 (Level 5: growth control rate is above 85%); Echinochloa crusgali (activity level) (Echinochloa crusgalli; Table 3, dose 250 g a.i./ha): 5 (Level 5: growth control rate is above 85%); Setaria viridis (activity level) (Setaria viridis; Table 3, dose 250 g a.i./ha): 5 (Level 5: growth control rate is above 85%) |
| Cc1nnc(NC(=O)c2ccc(C(F)(F)F)c(SC(C)C)c2F)o1 [Compound 1-10] | – | – | – | 5 (Level 5: growth control rate is above 85%) | 5 (Level 5: growth control rate is above 85%) | 5 (Level 5: growth control rate is above 85%) | Stellaria media (activity level) (Stellaria media; Table 2, dose 250 g a.i./ha): 5 (Level 5: growth control rate is above 85%) |
| CCCCS(=O)(=O)c1c(C(F)(F)F)ccc(C(=O)Nc2nnc(C)o2)c1F [Compound 1-15] | – | – | – | 5 (Level 5: growth control rate is above 85%) | 5 (Level 5: growth control rate is above 85%) | – | Stellaria media (activity level) (Stellaria media; Table 2, dose 250 g a.i./ha): 5 (Level 5: growth control rate is above 85%) |
| C=CCSc1c(C(F)(F)F)ccc(C(=O)Nc2nnc(C)o2)c1F [Compound 1-40] | 5 (Level 5: growth control rate is above 85%) | 5 (Level 5: growth control rate is above 85%) | 5 (Level 5: growth control rate is above 85%) | – | – | – | – |
| CC(C)=NOCCSc1c(C(F)(F)F)ccc(C(=O)Nc2nnc(C)o2)c1F [Compound 1-144] | 5 (Level 5: growth control rate is above 85%) | – | 5 (Level 5: growth control rate is above 85%) | – | – | – | Stellaria media (activity level) (Stellaria media; Table 2, dose 500 g a.i./ha): 5 (Level 5: growth control rate is above 85%); Abutilion theophrasti (activity level) (Abutilon theophrasti; Table 2, dose 500 g a.i./ha): 5 (Level 5: growth control rate is above 85%) |
| Cc1nnc(NC(=O)c2ccc(C(F)(F)F)c([S+]([O-])CCC3CC3)c2F)o1 (centres unmarked) [Compound 1-395] | 5 (Level 5: growth control rate is above 85%) | 5 (Level 5: growth control rate is above 85%) | 5 (Level 5: growth control rate is above 85%) | – | – | – | Abutilion theophrasti (activity level) (Abutilon theophrasti; Table 2, dose 500 g a.i./ha): 5 (Level 5: growth control rate is above 85%) |
| C#CCC[S+]([O-])c1c(C(F)(F)F)ccc(C(=O)Nc2nnc(C)o2)c1F (centres unmarked) [Compound 1-401] | – | – | – | 5 (Level 5: growth control rate is above 85%) | 5 (Level 5: growth control rate is above 85%) | 5 (Level 5: growth control rate is above 85%) | Digitaria sanguinalis (activity level) (Digitaria sanguinalis; Table 2, dose 250 g a.i./ha): 5 (Level 5: growth control rate is above 85%) |
| CC#CC[S+]([O-])c1c(C(F)(F)F)ccc(C(=O)Nc2nnc(C)o2)c1F (centres unmarked) [Compound 1-402] | – | – | – | 5 (Level 5: growth control rate is above 85%) | 5 (Level 5: growth control rate is above 85%) | 5 (Level 5: growth control rate is above 85%) | Digitaria sanguinalis (activity level) (Digitaria sanguinalis; Table 2, dose 250 g a.i./ha): 5 (Level 5: growth control rate is above 85%) |
| Cc1nnc(NC(=O)c2ccc(C(F)(F)F)c([S+]([O-])CCCF)c2F)o1 (centres unmarked) [Compound 1-403] | – | – | – | – | – | – | Amaranthus retroflexus (activity level) (Amaranthus retroflexus; Table 2, dose 125 g a.i./ha): 5 (Level 5: growth control rate is above 85%); Digitaria sanguinalis (activity level) (Digitaria sanguinalis; Table 2, dose 125 g a.i./ha): 5 (Level 5: growth control rate is above 85%); Abutilion theophrasti (activity level) (Abutilon theophrasti; Table 2, dose 125 g a.i./ha): 5 (Level 5: growth control rate is above 85%); Echinochloa crusgah (activity level) (Echinochloa crusgalli; Table 2, dose 125 g a.i./ha): 5 (Level 5: growth control rate is above 85%) |
| Cc1nnc(NC(=O)c2ccc(C(F)(F)F)c([S+]([O-])CC(C)F)c2F)o1 (centres unmarked) [Compound 1-404] | – | – | – | – | – | – | Amaranthus retroflexus (activity level) (Amaranthus retroflexus; Table 2, dose 125 g a.i./ha): 5 (Level 5: growth control rate is above 85%); Digitaria sanguinalis (activity level) (Digitaria sanguinalis; Table 2, dose 125 g a.i./ha): 5 (Level 5: growth control rate is above 85%); Abutilion theophrasti (activity level) (Abutilon theophrasti; Table 2, dose 125 g a.i./ha): 5 (Level 5: growth control rate is above 85%); Echinochloa crusgah (activity level) (Echinochloa crusgalli; Table 2, dose 125 g a.i./ha): 5 (Level 5: growth control rate is above 85%) |
| Cc1nnc(NC(=O)c2ccc(C(F)(F)F)c([S+]([O-])CCCC(F)(F)F)c2F)o1 (centres unmarked) [Compound 1-411] | – | – | – | 5 (Level 5: growth control rate is above 85%) | 5 (Level 5: growth control rate is above 85%) | 5 (Level 5: growth control rate is above 85%) | Digitaria sanguinalis (activity level) (Digitaria sanguinalis; Table 2, dose 250 g a.i./ha): 5 (Level 5: growth control rate is above 85%) |
| Cc1nnc(NC(=O)c2ccc(C(F)(F)F)c([S+]([O-])CCC(F)(F)C(F)(F)F)c2F)o1 (centres unmarked) [Compound 1-412] | – | – | – | 5 (Level 5: growth control rate is above 85%) | 5 (Level 5: growth control rate is above 85%) | 5 (Level 5: growth control rate is above 85%) | Digitaria sanguinalis (activity level) (Digitaria sanguinalis; Table 2, dose 250 g a.i./ha): 5 (Level 5: growth control rate is above 85%) |
| Cc1nnc(NC(=O)c2ccc(C(F)(F)F)c([S+]([O-])CCC(F)(C(F)(F)F)C(F)(F)F)c2F)o1 (centres unmarked) [Compound 1-413] | 5 (Level 5: growth control rate is above 85%) | 5 (Level 5: growth control rate is above 85%) | 5 (Level 5: growth control rate is above 85%) | – | – | – | – |
| Cc1nnc(NC(=O)c2ccc(C(F)(F)F)c([S+]([O-])CCCCl)c2F)o1 (centres unmarked) [Compound 1-414] | – | – | – | 5 (Level 5: growth control rate is above 85%) | 5 (Level 5: growth control rate is above 85%) | 5 (Level 5: growth control rate is above 85%) | Digitaria sanguinalis (activity level) (Digitaria sanguinalis; Table 2, dose 250 g a.i./ha): 5 (Level 5: growth control rate is above 85%) |
| Cc1nnc(NC(=O)c2ccc(C(F)(F)F)c([S+]([O-])CCC#N)c2F)o1 (centres unmarked) [Compound 1-427] | 5 (Level 5: growth control rate is above 85%) | 5 (Level 5: growth control rate is above 85%) | 5 (Level 5: growth control rate is above 85%) | – | – | – | Abutilion theophrasti (activity level) (Abutilon theophrasti; Table 2, dose 500 g a.i./ha): 5 (Level 5: growth control rate is above 85%) |
| Cc1nnc(NC(=O)c2ccc(C(F)(F)F)c([S+]([O-])CCCC#N)c2F)o1 (centres unmarked) [Compound 1-428] | 5 (Level 5: growth control rate is above 85%) | 5 (Level 5: growth control rate is above 85%) | 5 (Level 5: growth control rate is above 85%) | – | – | – | Abutilion theophrasti (activity level) (Abutilon theophrasti; Table 2, dose 500 g a.i./ha): 5 (Level 5: growth control rate is above 85%) |
